Tests used:
Tyrosinase = Tyrosinase hinderance effect; type: biochemical, Mushroom; conditions: 37° C., 10 minutes, absorbance 475 nm; concentration not given
Experimental: Tyrosinase enzyme is that extracted from Mushroom and used the product of SIGMA Company. At first, tyrosine being the substrate was dissolved in the distilled water to make 0.3 mg/ml of solution and 1.0 ml of each solution was put in the tube, and then, 1.0 ml of potassium-phosphate buffer solution (0.1 mol concentration, pH 6.8) and 0.7 ml of the distilled water were added.
Each sample liquid, 0.2 ml, which was prepared by mixing the enzyme-treated saponin fraction derived from the root of camellia sinensis of the above Example 1 of the present invention in ethanol solution in the proper concentration was put in the reaction liquid and then was reacted in 37° C. incubator for 10 minutes. At this time, the control was prepared by adding only 0.2 ml of solution, instead of each of sample liquid, ascorbic acid was used as the positive control. 0.1 ml of 2500 units/ml tyrosinase solution was added to the reaction liquid and reacted in 37° C. incubator for 10 minutes. The tube with the reaction liquid was put in the ice water to stop the reaction by quenching and the absorbance at the wavelength of 475 nm was determined with the photoelectric spectrophotometer, and then the result was represented in the below Table 21. Each of tyrosinase hinderance effect was calculated by the below mathematical formula 5.

elastase = target: T1, elastase (Sus scrofa, UniProt P00772); test: Inhibition of elastase activity; type: biochemical; conditions: EGCG 250 μM as positive control; 25° C., 15 minutes, absorbance 415 nm
T1 construct: purchased Sigma Aldrich E0127
Experimental: An ability hindering elastase activity of the enzyme-treated saponin fraction derived from the root of Camellia sinensis was determined in comparison with EGCG. The elastase and substrate as used were commercially purchased from Sigma Aldrich in […]0127), and the saponin fraction was used as the enzyme-treated saponin fraction derived from the root of Camellia sinensis roots as obtained from Example 1. 50 μL of Test material as represented in the below Table 1 and 20 μg/mL elastase·50 μL of solution of type III were mixed with that prepared with […] Tris-HCl buffer (pH 8.0) in 96-well plate. 250 μM of EGCG was used as a positive control, and non-treated group as a negative control used the distilled water. […] After completing the reaction, the absorption at the wavelength of 415 nm was determined. […] A: No addition of the experimental sample, Absorbance at the wavelength of 415 nm with the addition of enzyme B: No addition of the experimental sample, Absorbance at the wavelength of 415 nm without the addition of enzyme C: Addition of the experimental sample, Absorbance at the wavelength of 415 nm with the addition of enzyme D: Addition of the experimental sample, Absorbance at the wavelength of 415 nm without the addition of enzyme

B16/F10 melanoma cell = test: Inhibition of melanin generation in B16/F10 melanoma cell; type: cell-based; conditions: sample comprising 0.001 wt % of test material, cultured 3 days
Experimental: The sample comprising 0.001 wt % of the saponin fraction derived from the root of camellia sinensis of the above Example 1 and kojic acid, respectively, as the test material, was added to the culture of B16/F10 melanoma cell (Korean cell strain bank) at the constant concentration and cultured for 3 days, washed with PBS, dissolved with 1N NaOH and the absorbance was determined at 405 nm. At this time, the cell added no test material was considered as the control and the degree for hindering the melanin generation of each test material was determined by comparing the contents of melanin in the control. The inhibition rate of melanin generation was calculated according to mathematical formula 6 as below and its result was represented in Table 22.

5α-reductase = target: T2, 5α-reductase (Homo sapiens, UniProt P31213); test: Inhibition of 5α-reductase activity, [14C]testosterone to DHT in HEK293-5αR2 cell; type: cell-based; conditions: 2 hours, negative control 48.0
T2 construct: 3xFLAG; expressed in transfected cells; host or cells: HEK293
T2 sequence (P31213 1-254): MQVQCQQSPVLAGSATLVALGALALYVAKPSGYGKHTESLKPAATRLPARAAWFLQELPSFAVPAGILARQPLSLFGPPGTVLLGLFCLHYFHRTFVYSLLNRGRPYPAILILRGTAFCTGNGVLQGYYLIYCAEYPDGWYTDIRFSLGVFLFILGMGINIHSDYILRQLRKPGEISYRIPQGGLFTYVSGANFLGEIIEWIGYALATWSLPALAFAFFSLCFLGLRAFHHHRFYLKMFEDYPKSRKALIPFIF
Experimental: In order to identify the effect for inhibiting 5α-reductase activity, a ratio of [^14C]testosterone changed into [^14C]dihydrotestosterone (DHT) in HEK293-5αR2 cell was determined. […] The next day, new medium with the enzyme substrate and inhibitor was changed. 0.05 μCi [^14C]testosterone (Amersham Pharmacia biotech, UK) as the substrate of the medium was used.
Thereafter, the culture media was collected and steroid was extracted with 800 μl of ethylacetate and then, after separating the organic solvent layer of the top and drying it, the remaining residue was dissolved with 50 μl of ethylacetate and developed it by using ethylacetate-hexane (1:1) as a solvent on Silica plastic sheet kieselgel 60 F254.

collagenase (MMP-1) = test: Collagenase (MMP-1) generation in human fibroblast, ELISA; type: cell-based; conditions: saponin fraction 30 μg/ml for 24 hours, non-treated group = 100
Experimental: Fibroblast of a human was placed in 96-well plate (96-well microtiter plate) with Dulbecco's Modified Eagle's Media (DMEM) containing 2.5% fetal bovine serum to be 5,000 cells/well, and was cultured at 5% CO2, at the temperature of 37° C. of incubator to grow to about 70˜80% confluency. The saponin fraction derived from the root of Camellia sinensis of the above Example 1 was treated for 24 hours in a concentration of 30 μg/ml, and then the cell culture was collected.
The degree of the collagenase generation for the cell culture collected by using the commercially available collagenase determination Apparatus (AmershamPharmacia Corporation in U.S.A., Catalog #: RPN 2610) was determined. At first, the collected cell culture was placed in 96-well plate evenly covered with the first collagenase antibody and antigen-antibody reaction was performed in thermostat container for three hours. […]
The absorbance of 96-well plate representing yellow color was determined by using Absorptiometer at 405 nm, the degree of collagenase synthesis was calculated by the below Mathematical formula 2, and the result was shown in Table 2 as below. In this case, the absorbance for the reaction of the cell culture collected from the group without treating with the composition was used as the control.

procollagen type I = test: Promotion of collagen biosynthesis in fibroblast, procollagen type I ELISA; type: cell-based; conditions: 10 ng/ml, 24 hours, non-treated group = 100
Experimental: In order to investigate the promoting effect of the collagen biosynthesis, the enzyme-treated saponin fraction derived from the root of camellia sinensis of the present invention was determined in comparison with TGF-β. At first, fibroblast was seeded as 10^5 cells per a well in 24-well plate and cultured until growing to about 90% confluency. After incubating it with non-serum DMEM medium for 24 hours, it was treated with 10 ng/ml of the saponin fraction derived from the root of camellia sinensis of the above Example 1 and TGF-β dissolved in the non-serum medium, respectively and incubated in CO2 incubator for 24 hours. The supernatant of them was taken and it was examined as to whether procollagen was increased or not by using procollagen type I ELISA kit. The result is represented in Table 8, and the ability for synthesizing the collagen was compared by considering that the non-treated group was 100.

T1 sequence (P00772 27-266): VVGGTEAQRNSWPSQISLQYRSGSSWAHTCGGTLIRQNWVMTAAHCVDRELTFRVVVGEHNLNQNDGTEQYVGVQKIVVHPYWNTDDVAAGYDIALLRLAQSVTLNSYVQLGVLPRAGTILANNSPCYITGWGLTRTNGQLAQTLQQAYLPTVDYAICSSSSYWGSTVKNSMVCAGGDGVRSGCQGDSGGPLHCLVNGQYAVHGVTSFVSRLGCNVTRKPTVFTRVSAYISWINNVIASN

**Q.** How did the “Tyrosnase hinderance rate (%)” value (Tyrosinase) turn out when `O=C1O[C@H]([C@@H](O)CO)C(O)=C1O` [Ascorbic acid] was run?
**A.** 52%

**Q.** `O=C(O[C@@H]1Cc2c(O)cc(O)cc2O[C@@H]1c1cc(O)c(O)c(O)c1)c1cc(O)c(O)c(O)c1` [EGCG] was tested. Which “Degree of the inhibiton (%) of elastase activity” value (elastase) did it give?
**A.** 65%

**Q.** `O=c1cc(CO)occ1O` [Kojic acid] was tested. Which “Inhibition rate of melanin generation (%)” value (B16/F10 melanoma cell) did it give?
**A.** 53%

**Q.** How did the “Conversion rate (%) of testosterone into dihydrotestosterone” value (5α-reductase) turn out when `CC(C)(C)NC(=O)[C@H]1CC[C@H]2[C@@H]3CC[C@H]4NC(=O)C=C[C@]4(C)[C@H]3CC[C@]12C` [Positive control, finasteride] was run?
**A.** 27.6%

**Q.** With `CC1=C(/C=C/C(C)=C/C=C/C(C)=C/C(=O)O)C(C)(C)CCC1` [Retinoic acid] as the compound, how does the “Degree of the expression (%) of collagenase” value (collagenase (MMP-1)) read?
**A.** 75%

**Q.** How did the “Ability for synthesizing collagen (%)” value (procollagen type I) turn out when “TGF-β: comparison substance for collagen biosynthesis” was run?
**A.** 183.5%

Source: patent US10022415B2, “External composition for skin containing an enzyme-treated saponin fraction derived from the root of Camellia sinensis” (AMOREPACIFIC CORPORATION, priority 2014, dated 2018)
